In PubChem BioAssay (NCI):
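The compound was tested at five concentrations on cells cultured in 96-well plates, with a 48-hour exposure period. At the GI50, growth is halved. TGI is the concentration that stops growth completely.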

Tests used:
Experiment in all cases: DTP human tumour cell line panel, 48 h; in the data active = GI50 below about 0.43 µM; inactive = the rest
SW-620 colon = test system: SW-620 colon
HCT-15 colon = test system: HCT-15 colon
TK-10 renal = test system: TK-10 renal
HT29 colon = test system: HT29 colon
IGROV1 ovarian = test system: IGROV1 ovarian
KM12 colon = test system: KM12 colon
OVCAR-3 ovarian = test system: OVCAR-3 ovarian
LOX IMVI melanoma = test system: LOX IMVI melanoma
HOP-92 NSCLC = test system: HOP-92 NSCLC
RXF 393 renal = test system: RXF 393 renal
CAKI-1 renal = test system: CAKI-1 renal
SF-268 CNS = test system: SF-268 CNS
ACHN renal = test system: ACHN renal
MALME-3M melanoma = test system: MALME-3M melanoma
SNB-75 CNS = test system: SNB-75 CNS
SK-OV-3 ovarian = test system: SK-OV-3 ovarian
NCI-H23 lung = test system: NCI-H23 lung
UACC-257 melanoma = test system: UACC-257 melanoma
SK-MEL-28 melanoma = test system: SK-MEL-28 melanoma
SF-539 CNS = test system: SF-539 CNS
HCC-2998 colon = test system: HCC-2998 colon
NCI/ADR-RES ovarian = test system: NCI/ADR-RES ovarian
SK-MEL-5 melanoma = test system: SK-MEL-5 melanoma
M14 melanoma = test system: M14 melanoma
HOP-62 NSCLC = test system: HOP-62 NSCLC
SN12C renal = test system: SN12C renal
NCI-H522 lung = test system: NCI-H522 lung
UO-31 renal = test system: UO-31 renal
A498 renal = test system: A498 renal
DU-145 prostate = test system: DU-145 prostate
OVCAR-8 ovarian = test system: OVCAR-8 ovarian
K-562 leukemia = test system: K-562 leukemia
A549 NSCLC = test system: A549 NSCLC
MDA-MB-435 = test system: MDA-MB-435
RPMI-8226 leukemia = test system: RPMI-8226 leukemia
U251 CNS = test system: U251 CNS
PC-3 prostate = test system: PC-3 prostate
SF-295 CNS = test system: SF-295 CNS
COLO 205 colon = test system: COLO 205 colon
BT-549 breast = test system: BT-549 breast
SNB-19 CNS = test system: SNB-19 CNS
MCF7 breast = test system: MCF7 breast
EKVX NSCLC = test system: EKVX NSCLC
NCI-H460 lung = test system: NCI-H460 lung
UACC-62 melanoma = test system: UACC-62 melanoma
HL-60(TB) leukemia = test system: HL-60(TB) leukemia
MOLT-4 leukemia = test system: MOLT-4 leukemia
786-0 renal = test system: 786-0 renal
CCRF-CEM leukemia = test system: CCRF-CEM leukemia
OVCAR-4 ovarian = test system: OVCAR-4 ovarian
HS 578T breast = test system: HS 578T breast
NCI-H226 lung = test system: NCI-H226 lung
SK-MEL-2 melanoma = test system: SK-MEL-2 melanoma
HCT-116 colon = test system: HCT-116 colon
MDA-MB-231 breast = test system: MDA-MB-231 breast
OVCAR-5 ovarian = test system: OVCAR-5 ovarian

CC[C@H](C)[C@H](NC(=O)C12CC(NC)(C1)C2)C(=O)N(C)[C@H](C[C@@H](OC(C)=O)c1nc(C(=O)N[C@@H](Cc2ccccc2)C[C@H](C)C(=O)OC)cs1)C(C)C
> 17100 nM: TGI (HCT-15 colon)
1330 nM: TGI (HT29 colon)
2170 nM: TGI (SF-295 CNS)
> 25000 nM: TGI (SW-620 colon) | TGI (TK-10 renal) | TGI (IGROV1 ovarian) | TGI (LOX IMVI melanoma) | TGI (HOP-92 NSCLC) | TGI (CAKI-1 renal) | TGI (SF-268 CNS) | TGI (ACHN renal) | TGI (MALME-3M melanoma) | TGI (SNB-75 CNS) | TGI (SK-OV-3 ovarian) | TGI (NCI-H23 lung) | TGI (UACC-257 melanoma) | TGI (SK-MEL-28 melanoma) | TGI (HCC-2998 colon) | TGI (NCI/ADR-RES ovarian) | TGI (HOP-62 NSCLC) | TGI (SN12C renal) | TGI (UO-31 renal) | TGI (OVCAR-8 ovarian) | TGI (K-562 leukemia) | TGI (A549 NSCLC) | TGI (U251 CNS) | TGI (PC-3 prostate) | TGI (SNB-19 CNS) | TGI (MCF7 breast) | TGI (EKVX NSCLC) | TGI (NCI-H460 lung) | TGI (UACC-62 melanoma) | TGI (MOLT-4 leukemia) | TGI (OVCAR-4 ovarian) | TGI (NCI-H226 lung) | TGI (MDA-MB-231 breast) | TGI (OVCAR-5 ovarian)
3020 nM: TGI (DU-145 prostate)
> 17600 nM: TGI (KM12 colon)
250 nM: TGI (MDA-MB-435)
999 nM: TGI (SK-MEL-5 melanoma)
1560 nM: TGI (COLO 205 colon)
5830 nM: TGI (RPMI-8226 leukemia)
> 8000 nM: TGI (A498 renal)
1500 nM: TGI (SF-539 CNS)
15100 nM: TGI (HS 578T breast)
> 11700 nM: TGI (786-0 renal)
active: GI50 (SW-620 colon) 159 nM | GI50 (HT29 colon) 138 nM | GI50 (IGROV1 ovarian) 181 nM | GI50 (KM12 colon) 179 nM | GI50 (OVCAR-3 ovarian) 55 nM | GI50 (LOX IMVI melanoma) 209 nM | GI50 (RXF 393 renal) 160 nM | GI50 (SF-268 CNS) 355 nM | GI50 (MALME-3M melanoma) 329 nM | GI50 (SNB-75 CNS) 92.8 nM | GI50 (SF-539 CNS) 421 nM | GI50 (HCC-2998 colon) 349 nM | GI50 (SK-MEL-5 melanoma) 103 nM | GI50 (M14 melanoma) 237 nM | GI50 (NCI-H522 lung) 34.6 nM | GI50 (DU-145 prostate) 199 nM | GI50 (K-562 leukemia) 53.4 nM | GI50 (MDA-MB-435) 29.7 nM | GI50 (RPMI-8226 leukemia) 80.6 nM | GI50 (PC-3 prostate) 208 nM | GI50 (SF-295 CNS) 401 nM | GI50 (COLO 205 colon) 189 nM | GI50 (BT-549 breast) 97.2 nM | GI50 (MCF7 breast) 43.9 nM | GI50 (NCI-H460 lung) 282 nM | GI50 (UACC-62 melanoma) 84.2 nM | GI50 (HL-60(TB) leukemia) 55.7 nM | GI50 (786-0 renal) 237 nM | GI50 (CCRF-CEM leukemia) 221 nM | GI50 (HS 578T breast) 234 nM | GI50 (SK-MEL-2 melanoma) 171 nM | GI50 (HCT-116 colon) 96.9 nM
2410 nM: TGI (CCRF-CEM leukemia)
1020 nM: TGI (BT-549 breast)
163 nM: TGI (HL-60(TB) leukemia)
511 nM: TGI (OVCAR-3 ovarian)
inactive: GI50 (HCT-15 colon) 1110 nM | GI50 (TK-10 renal) 3700 nM | GI50 (HOP-92 NSCLC) 7170 nM | GI50 (CAKI-1 renal) 6420 nM | GI50 (ACHN renal) 1390 nM | GI50 (SK-OV-3 ovarian) 786 nM | GI50 (NCI-H23 lung) 790 nM | GI50 (UACC-257 melanoma) 19800 nM | GI50 (SK-MEL-28 melanoma) 2130 nM | GI50 (NCI/ADR-RES ovarian) > 25000 nM | GI50 (HOP-62 NSCLC) 542 nM | GI50 (SN12C renal) 585 nM | GI50 (UO-31 renal) 1940 nM | GI50 (A498 renal) 525 nM | GI50 (OVCAR-8 ovarian) 633 nM | GI50 (A549 NSCLC) 1110 nM | GI50 (U251 CNS) 434 nM | GI50 (SNB-19 CNS) 615 nM | GI50 (EKVX NSCLC) 2130 nM | GI50 (MOLT-4 leukemia) 649 nM | GI50 (OVCAR-4 ovarian) 3830 nM | GI50 (NCI-H226 lung) 1710 nM | GI50 (MDA-MB-231 breast) 576 nM | GI50 (OVCAR-5 ovarian) 1520 nM
368 nM: TGI (NCI-H522 lung)
1220 nM: TGI (RXF 393 renal)

N#C/C(=C\c1ccc2c(c1)OCO2)n1nnc2ccccc21
17600 nM: TGI (SK-MEL-28 melanoma)
13100 nM: TGI (CAKI-1 renal) | TGI (DU-145 prostate)
15000 nM: TGI (BT-549 breast)
23400 nM: TGI (MALME-3M melanoma)
16000 nM: TGI (NCI-H226 lung)
17200 nM: TGI (NCI/ADR-RES ovarian)
7230 nM: TGI (HCC-2998 colon)
12700 nM: TGI (UO-31 renal)
13800 nM: TGI (HCT-15 colon)
> 100000 nM: TGI (SW-620 colon) | TGI (HT29 colon) | TGI (KM12 colon) | TGI (OVCAR-8 ovarian) | TGI (K-562 leukemia) | TGI (RPMI-8226 leukemia) | TGI (NCI-H460 lung) | TGI (HL-60(TB) leukemia) | TGI (MOLT-4 leukemia) | TGI (CCRF-CEM leukemia)
17000 nM: TGI (SK-OV-3 ovarian)
5280 nM: TGI (A498 renal)
12600 nM: TGI (SK-MEL-5 melanoma)
20500 nM: TGI (SF-268 CNS)
501 nM: TGI (MDA-MB-435)
23500 nM: TGI (M14 melanoma)
21100 nM: TGI (U251 CNS)
48100 nM: TGI (A549 NSCLC)
26900 nM: TGI (SK-MEL-2 melanoma)
6270 nM: TGI (SF-539 CNS)
14900 nM: TGI (HOP-62 NSCLC)
25000 nM: TGI (LOX IMVI melanoma)
16300 nM: TGI (EKVX NSCLC)
14100 nM: TGI (MCF7 breast)
13300 nM: TGI (SNB-19 CNS)
24300 nM: TGI (PC-3 prostate)
62400 nM: TGI (UACC-257 melanoma)
17400 nM: TGI (HCT-116 colon)
1510 nM: TGI (SNB-75 CNS)
14300 nM: TGI (OVCAR-3 ovarian)
20300 nM: TGI (OVCAR-4 ovarian)
15200 nM: TGI (NCI-H522 lung)
18500 nM: TGI (UACC-62 melanoma)
8530 nM: TGI (ACHN renal)
11800 nM: TGI (IGROV1 ovarian)
9360 nM: TGI (HS 578T breast)
inactive: GI50 (SW-620 colon) 489 nM | GI50 (TK-10 renal) 2200 nM | GI50 (IGROV1 ovarian) 716 nM | GI50 (KM12 colon) 797 nM | GI50 (LOX IMVI melanoma) 990 nM | GI50 (HOP-92 NSCLC) 810 nM | GI50 (RXF 393 renal) 986 nM | GI50 (CAKI-1 renal) 518 nM | GI50 (SF-268 CNS) 3220 nM | GI50 (ACHN renal) 784 nM | GI50 (MALME-3M melanoma) 1400 nM | GI50 (SK-OV-3 ovarian) 2610 nM | GI50 (NCI-H23 lung) 3600 nM | GI50 (UACC-257 melanoma) 6680 nM | GI50 (SK-MEL-28 melanoma) 1240 nM | GI50 (SF-539 CNS) 1480 nM | GI50 (HCC-2998 colon) 1860 nM | GI50 (SK-MEL-5 melanoma) 1620 nM | GI50 (HOP-62 NSCLC) 2410 nM | GI50 (SN12C renal) 1320 nM | GI50 (UO-31 renal) 1760 nM | GI50 (A498 renal) 1760 nM | GI50 (DU-145 prostate) 1900 nM | GI50 (OVCAR-8 ovarian) 1760 nM | GI50 (A549 NSCLC) 991 nM | GI50 (RPMI-8226 leukemia) 2190 nM | GI50 (U251 CNS) 1540 nM | GI50 (PC-3 prostate) 1350 nM | GI50 (BT-549 breast) 938 nM | GI50 (SNB-19 CNS) 1420 nM | GI50 (EKVX NSCLC) 1540 nM | GI50 (NCI-H460 lung) 2860 nM | GI50 (UACC-62 melanoma) 450 nM | GI50 (MOLT-4 leukemia) 2420 nM | GI50 (786-0 renal) 2010 nM | GI50 (CCRF-CEM leukemia) 491 nM | GI50 (OVCAR-4 ovarian) 1660 nM | GI50 (HS 578T breast) 2530 nM | GI50 (NCI-H226 lung) 2210 nM | GI50 (SK-MEL-2 melanoma) 1230 nM | GI50 (HCT-116 colon) 439 nM | GI50 (MDA-MB-231 breast) 1700 nM | GI50 (OVCAR-5 ovarian) 2220 nM
7730 nM: TGI (MDA-MB-231 breast)
active: GI50 (HCT-15 colon) 395 nM | GI50 (HT29 colon) 383 nM | GI50 (OVCAR-3 ovarian) 357 nM | GI50 (SNB-75 CNS) 179 nM | GI50 (NCI/ADR-RES ovarian) 405 nM | GI50 (M14 melanoma) 424 nM | GI50 (NCI-H522 lung) 270 nM | GI50 (K-562 leukemia) 361 nM | GI50 (MDA-MB-435) 200 nM | GI50 (MCF7 breast) 417 nM | GI50 (HL-60(TB) leukemia) 330 nM
8550 nM: TGI (TK-10 renal)
3310 nM: TGI (HOP-92 NSCLC)
14800 nM: TGI (SN12C renal)
22600 nM: TGI (NCI-H23 lung)
5310 nM: TGI (RXF 393 renal)
7130 nM: TGI (OVCAR-5 ovarian)
12900 nM: TGI (786-0 renal)
